Assay results published in patent US20070244103A1, “Novel Compounds Having an Anti-Bacterial Activity” (Morphochem Aktiengesellschaft Fur Kombinatorische Chemie, priority 2004, published 2007).

Assay: MIC of the examples against various organisms
Type: cell-based
Details: against at least two of the above organisms (12-strain panel)
Method: The MIC (μg/ml) of the examples against various organisms was determined: A. baumannii ATCC19606, E. cloacae ATCC23355, E. coli ATCC25922, K. pneumoniae ATCC27736, P. mirabilis ATCC29906, P. aeruginosa ATCC27853, S. maltophilia ATCC13637, S. aureus ATCC43300, S. epidermidis ATCC14990, S. haemolyticus ATCC29970, E. faecalis ATCC29212 and E. faecium ATC19434.

| Structure (SMILES) | MIC |
| --- | --- |
| COc1ccc2ncc(Cl)c(C(O)CN3CCOC(CNCc4cc5c(cc4F)SCC(=O)N5)C3)c2c1 (single isomer, unassigned) [Example 75, 6-[({4-[2-(3-Chloro-6-methoxy-quinolin-4-yl)-2-hydroxy-ethyl]-morpholin-2-ylmethyl}-amino)-methyl]-7-fluoro-4H-benzo[1,4]thiazin-3-one] | ≤ 2 µg/mL |
| COc1ccc2ncc(Cl)c(C(O)CN3CCOC(CNC/C=C/c4ccccc4)C3)c2c1 (single isomer, unassigned) [Example 77, 1-(3-Chloro-6-methoxy-quinolin-4-yl)-2-{2-[((E)-3-phenyl-allylamino)-methyl]-morpholin-4-yl}-ethanol] | ≤ 2 µg/mL |
| COc1ccc2nccc(NC(=O)C3CCCC(CNCc4ccc5c(c4)NC(=O)CS5)C3)c2n1 (stereo not drawn) [Example 16, 3-{[(3-Oxo-3,4-dihydro-2H-benzo[1,4]thiazin-6-ylmethyl)-amino]-methyl}-cyclohexanecarboxylic acid (6-methoxy-[1,5]-naphthyridin-4-yl)-amide] | ≤ 2 µg/mL |
| COc1ccc2nccc(NC(=O)C3CCCC(CNCc4ccc5c(n4)NC(=O)CS5)C3)c2n1 (stereo not drawn) [Example 17, 3-{[(3-Oxo-3,4-dihydro-2H-pyrido[3,2-b][1,4]thiazin-6-ylmethyl)-amino]-methyl}-cyclohexanecarboxylic acid (6-methoxy-[1,5]-naphthyridin-4-yl)-amide] | ≤ 2 µg/mL |
| COc1ccc2nccc(NC(=O)C3CCCC(CNCc4ccc5nsnc5c4)C3)c2n1 (stereo not drawn) [Example 20, 3-{[(Benzo[1,2,5]thiadiazol-5-ylmethyl)-amino]-methyl}-cyclohexanecarboxylic acid (6-methoxy-[1,5]-naphthyridin-4-yl)-amide] | ≤ 2 µg/mL |
| COc1ccc2nccc(NC(=O)C3CCCC(CNC/C=C/c4ccccc4)C3)c2n1 (stereo not drawn) [Example 22, 3-[((E)-3-Phenyl-allylamino)-methyl]-cyclohexanecarboxylic acid (6-methoxy-[1,5]-naphthyridin-4-yl)-amide] | ≤ 2 µg/mL |
| COc1ccc2nccc(NC(=O)C3CCCC(CNCc4cc5c(cc4F)SCC(=O)N5)C3)c2n1 (stereo not drawn) [Example 24, 3-{[(7-Fluoro-3-oxo-3,4-dihydro-2H-benzo[1,4]thiazin-6-ylmethyl)-amino]-methyl}-cyclohexanecarboxylic acid (6-methoxy-[1,5]-naphthyridin-4-yl)-amide] | ≤ 2 µg/mL |
| COc1ccc2ncc(Cl)c(C(O)CN3C4CCC3CC(NCc3ccc5c(c3)OCCO5)C4)c2n1 (stereo not drawn) [Example 25, 1-(3-Chloro-6-methoxy-[1,5]-naphthyridin-4-yl)-2-{3-[(2,3-dihydro-benzo[1,4]dioxin-6-ylmethyl)-amino]-8-aza-bicyclo[3.2.1]oct-8-yl}-ethanol] | ≤ 2 µg/mL |
| COc1ccc2ncc(Cl)c(C(O)CN3C4CCC3CC(NCc3ccc5nsnc5c3)C4)c2n1 (stereo not drawn) [Example 26, 2-{3-[(Benzo[1,2,5]thiadiazol-5-ylmethyl)-amino]-8-aza-bicyclo[3.2.1]oct-8-yl}-1-(3-chloro-6-methoxy-[1,5]-naphthyridin-4-yl)-ethanol] | ≤ 2 µg/mL |
| COc1ccc2ncc(Cl)c(C(O)CN3C4CCC3CC(NCc3ccc5c(c3)NC(=O)CO5)C4)c2n1 (stereo not drawn) [Example 27, 6-({8-[2-(3-Chloro-6-methoxy-[1,5]-naphthyridin-4-yl)-2-hydroxy-ethyl]-8-aza-bicyclo[3.2.1]oct-3-ylamino}-methyl)-4H-benzo[1,4]oxazin-3-one] | ≤ 2 µg/mL |
| COc1ccc2ncc(Cl)c(C(O)CN3C4CCC3CC(NCc3cc5c(cc3F)SCC(=O)N5)C4)c2n1 (stereo not drawn) [Example 28, 6-({8-[2-(3-Chloro-6-methoxy-[1,5]-naphthyridin-4-yl)-2-hydroxy-ethyl]-8-aza-bicyclo[3.2.1]oct-3-ylamino}-methyl)-7-fluoro-4H-benzo[1,4]thiazin-3-one] | ≤ 2 µg/mL |
| COc1ccc2ncc(Cl)c(C(O)CN3C4CCC3CC(NCc3ccc5c(c3)NC(=O)CS5)C4)c2n1 (stereo not drawn) [Example 29, 6-({8-[2-(3-Chloro-6-methoxy-[1,5]-naphthyridin-4-yl)-2-hydroxy-ethyl]-8-aza-bicyclo[3.2.1]oct-3-ylamino}-methyl)-4H-benzo[1,4]thiazin-3-one] | ≤ 2 µg/mL |
| COc1ccc2ncc(Cl)c(C(O)CN3C4CCC3CC(NCc3cc5c(cn3)OCCO5)C4)c2n1 (stereo not drawn) [Example 30, 1-(3-Chloro-6-methoxy-[1,5]-naphthyridin-4-yl)-2-{3-[(2,3-dihydro-[1,4]dioxino[2,3-c]pyridin-7-ylmethyl)-amino]-8-aza-bicyclo[3.2.1]oct-8-yl}-ethanol] | ≤ 2 µg/mL |
| COc1cnc2cccc(C(O)CN3C4CCC3CC(NC/C=C/c3ccccc3)C4)c2c1 (stereo not drawn) [Example 38, 1-(3-Methoxy-quinolin-5-yl)-2-[3-((E)-3-phenylallylamino)-8-aza-bicyclo[3.2.1]oct-8-yl]-ethanol] | ≤ 2 µg/mL |
| COc1cnc2cccc(C(O)CN3C4CCC3CC(NCc3ccc5c(c3)OCCO5)C4)c2c1 (stereo not drawn) [Example 39, 2-{3-[(2,3-Dihydro-benzo[1,4]dioxin-6-ylmethyl)-amino]-8-aza-bicyclo[3.2.1]oct-8-yl}-1-(3-methoxy-quinolin-5-yl)-ethanol] | ≤ 2 µg/mL |
| COc1cnc2cccc(C(O)CN3C4CCC3CC(NCc3ccc5nsnc5c3)C4)c2c1 (stereo not drawn) [Example 40, 2-{3-[(Benzo[1,2,5]thiadiazol-5-ylmethyl)-amino]-8-aza-bicyclo[3.2.1]oct-8-yl}-1-(3-methoxy-quinolin-5-yl)-ethanol] | ≤ 2 µg/mL |
| COc1ccc2nccc(NC(=O)C3CCCC(CNC/C=C/c4ccccc4)C3)c2c1 (stereo not drawn) [Example 53, 3-[((E)-3-Phenyl-allylamino)-methyl]-cyclohexanecarboxylic acid (6-methoxy-quinolin-4-yl)-amide] | ≤ 2 µg/mL |
| COc1cnc2cccc(C(O)CN3C4CCC3CC(NCc3ccc5c(c3)OCCO5)C4)c2n1 (stereo not drawn) [Example 78, 2-{3-[(2,3-Dihydro-benzo[1,4]dioxin-6-ylmethyl)-amino]-8-aza-bicyclo[3.2.1]oct-8-yl}-1-(3-methoxy-quinoxalin-5-yl)-ethanol] | ≤ 2 µg/mL |
| COc1cnc2cccc(C(O)CN3C4CCC3CC(NCc3ccc5c(n3)NC(=O)CS5)C4)c2n1 (stereo not drawn) [Example 79, 6-({8-[2-Hydroxy-2-(3-methoxy-quinoxalin-5-yl)-ethyl]-8-aza-bicyclo[3.2.1]oct-3-ylamino}-methyl)-4H-pyrido[3,2-b][1,4]thiazin-3-one] | ≤ 2 µg/mL |
| COc1cnc2cccc(C(O)CN3C4CCC3CC(NCc3ccc5c(c3)NC(=O)CO5)C4)c2n1 (stereo not drawn) [Example 80, 6-({8-[2-Hydroxy-2-(3-methoxy-quinoxalin-5-yl)-ethyl]-8-aza-bicyclo[3.2.1]oct-3-ylamino}-methyl)-4H-benzo[1,4]oxazin-3-one] | ≤ 2 µg/mL |

Further lines, results first:

| MIC | Structure (SMILES) |
| --- | --- |
| ≤ 2 µg/mL | COc1ccc2ncc(Cl)c(C(O)CN3CCOC(CNCc4ccc5c(c4)OCO5)C3)c2c1 (single isomer, unassigned) [Example 72, 2-(2-{[(Benzo[1,3]dioxol-5-ylmethyl)-amino]-methyl}-morpholin-4-yl)-1-(3-chloro-6-methoxy-quinolin-4-yl)-ethanol] |
| ≤ 2 µg/mL | COc1ccc2ncc(Cl)c(C(O)CN3CCOC(CNCc4ccc5c(c4)OCCO5)C3)c2c1 (single isomer, unassigned) [Example 73, 1-(3-Chloro-6-methoxy-quinolin-4-yl)-2-(2-{[(2,3-dihydro-benzo[1,4]dioxin-6-ylmethyl)-amino]-methyl}-morpholin-4-yl)-ethanol] |
| ≤ 2 µg/mL | COc1ccc2ncc(Cl)c(C(O)CN3CCOC(CNCc4ccc5nsnc5c4)C3)c2c1 (single isomer, unassigned) [Example 74, 2-(2-{[(Benzo[1,2,5]thiadiazol-5-ylmethyl)-amino]-methyl}-morpholin-4-yl)-1-(3-chloro-6-methoxy-quinolin-4-yl)-ethanol] |
| ≤ 2 µg/mL | COc1ccc2ncc(Cl)c(C(O)CN3CCOC(CNCc4ccc5c(c4)NC(=O)CS5)C3)c2c1 (single isomer, unassigned) [Example 76, 6-[({4-[2-(3-Chloro-6-methoxy-quinolin-4-yl)-2-hydroxy-ethyl]-morpholin-2-ylmethyl}-amino)-methyl]-4H-benzo[1,4]thiazin-3-one] |
| ≤ 2 µg/mL | COc1ccc2nccc(NC(=O)C3CCCC(CNCc4ccc5c(c4)NC(=O)CO5)C3)c2n1 (stereo not drawn) [Example 15, 3-{[(3-Oxo-3,4-dihydro-2H-benzo[1,4]oxazin-6-ylmethyl)-amino]-methyl}-cyclohexanecarboxylic acid (6-methoxy-[1,5]-naphthyridin-4-yl)-amide] |
| ≤ 2 µg/mL | COc1ccc2nccc(NC(=O)C3CCCC(CNCc4ccc5c(c4)OCCO5)C3)c2n1 (stereo not drawn) [Example 19, 3-{[(2,3-Dihydro-benzo[1,4]dioxin-6-ylmethyl)-amino]-methyl}-cyclohexanecarboxylic acid (6-methoxy-[1,5]-naphthyridin-4-yl)-amide] |
| ≤ 2 µg/mL | COc1ccc2nccc(C(O)CN3CCOC(CNCc4ccc5c(c4)OCCO5)C3)c2n1 (stereo not drawn) [Example 31, 2-(2-{[(2,3-Dihydro-benzo[1,4]dioxin-6-ylmethyl)-amino]-methyl}-morpholin-4-yl)-1-(6-methoxy-[1,5]naphthyridin-4-yl)-ethanol] |
| ≤ 2 µg/mL | COc1ccc2nccc(C(O)CN3CCOC(CNCc4ccc5c(c4)NC(=O)CS5)C3)c2n1 (stereo not drawn) [Example 32, 6-[({4-[2-Hydroxy-2-(6-methoxy-[1,5]naphthyridin-4-yl)-ethyl]-morpholin-2-ylmethyl}amino)-methyl]-4H-benzo[1,4]thiazin-3-one] |
| ≤ 2 µg/mL | COc1ccc2nccc(C(O)CN3CCOC(CNCc4ccc5c(n4)NC(=O)CS5)C3)c2n1 (stereo not drawn) [Example 33, 6-[({4-[2-Hydroxy-2-(6-methoxy-[1,5]naphthyridin-4-yl)-ethyl]-morpholin-2-ylmethyl}amino)-methyl]-4H-pyrido[3,2-b][1,4]thiazin-3-one] |
| ≤ 2 µg/mL | COc1ccc2nccc(C(O)CN3CCOC(CNCc4ccc5c(c4)NC(=O)CO5)C3)c2n1 (stereo not drawn) [Example 34, 6-[({4-[2-Hydroxy-2-(6-methoxy-[1,5]naphthyridin-4-yl)-ethyl]-morpholin-2-ylmethyl}amino)-methyl]-4H-benzo[1,4]oxazin-3-one] |
